Laboratory results from patent US10131652B2, “Pyrimidinyloxy benzene derivatives as herbicides” (E. I. DU PONT DE NEMOURS AND COMPANY, priority 2014, dated 2018).
Like-named read-outs stand apart in the source and are kept apart here.

Assays:
Assay in all cases: Test D pre-/postemergence plant response
Assay type in all cases: in vivo
[1] = system: morningglory (Ipomoea coccinea); conditions: Ipomoea; for pest or weed control at 16 g/ha: 16 g ai/ha; for pest or weed control at 31 g/ha: 31 g ai/ha; for pest or weed control at 62 g/ha: 62 g ai/ha; for pest or weed control at 125 g/ha: 125 g ai/ha
Outline: (§1)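 Sown seed (loam/sand soil) treated preemergence; emerged plants, 1- to 4-leaf stage and 2 to 18 cm, treated postemergence in peat/vermiculite medium. Greenhouse incubation 13–15 d. Endpoint: visual 0–100 rating versus untreated.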

[2] = system: oilseed rape (Brassica napus); conditions: Brassica napus; for plant injury at 16 g/ha: 16 g ai/ha; for plant injury at 31 g/ha: 31 g ai/ha; for plant injury at 62 g/ha: 62 g ai/ha; for plant injury at 125 g/ha: 125 g ai/ha
Outline: as §1

[3] = system: pigweed (Amaranthus retroflexus); conditions: Amaranthus retroflexus; for pest or weed control at 16 g/ha: 16 g ai/ha; for pest or weed control at 31 g/ha: 31 g ai/ha; for pest or weed control at 62 g/ha: 62 g ai/ha; for pest or weed control at 125 g/ha: 125 g ai/ha
Outline: as §1

[4] = system: ragweed (common ragweed, Ambrosia elatior); conditions: Ambrosia artemisiifolia; for pest or weed control at 16 g/ha: 16 g ai/ha; for pest or weed control at 31 g/ha: 31 g ai/ha; for pest or weed control at 62 g/ha: 62 g ai/ha; for pest or weed control at 125 g/ha: 125 g ai/ha
Outline: as §1

soybean (Glycine max) = conditions: Glycine max; for plant injury at 16 g/ha: 16 g ai/ha; for plant injury at 31 g/ha: 31 g ai/ha; for plant injury at 62 g/ha: 62 g ai/ha; for plant injury at 125 g/ha: 125 g ai/ha
Outline: as §1

[5] = system: velvetleaf (Abutilon theophrasti); conditions: Abutilon theophrasti; for pest or weed control at 16 g/ha: 16 g ai/ha; for pest or weed control at 31 g/ha: 31 g ai/ha; for pest or weed control at 62 g/ha: 62 g ai/ha; for pest or weed control at 125 g/ha: 125 g ai/ha
Outline: as §1

[6] = system: waterhemp (common waterhemp, Amaranthus rudis); conditions: Amaranthus tuberculatus; for pest or weed control at 16 g/ha: 16 g ai/ha; for pest or weed control at 31 g/ha: 31 g ai/ha; for pest or weed control at 62 g/ha: 62 g ai/ha; for pest or weed control at 125 g/ha: 125 g ai/ha
Outline: as §1

[7] = system: winter wheat (Triticum aestivum); conditions: Triticum aestivum; for plant injury at 16 g/ha: 16 g ai/ha; for plant injury at 31 g/ha: 31 g ai/ha; for plant injury at 62 g/ha: 62 g ai/ha; for plant injury at 125 g/ha: 125 g ai/ha
Outline: as §1

[8] = system: yellow nutsedge (Cyperus esculentus); conditions: Cyperus; for pest or weed control at 16 g/ha: 16 g ai/ha; for pest or weed control at 31 g/ha: 31 g ai/ha; for pest or weed control at 62 g/ha: 62 g ai/ha; for pest or weed control at 125 g/ha: 125 g ai/ha
Outline: as §1

[9] = pre-emergence, Preemergence, scale 0 to 100 (0 no effect, 100 complete control), read-out: Plant response rating, Morningglory
[10] = pre-emergence, Preemergence, scale 0 to 100 (0 no effect, 100 complete control), read-out: Plant response rating, Oilseed Rape
[11] = pre-emergence, Preemergence, scale 0 to 100 (0 no effect, 100 complete control), read-out: Plant response rating, Pigweed
[12] = pre-emergence, Preemergence, scale 0 to 100 (0 no effect, 100 complete control), read-out: Plant response rating, Ragweed
[13] = pre-emergence, Preemergence, scale 0 to 100 (0 no effect, 100 complete control), read-out: Plant response rating, Soybean
[14] = pre-emergence, Preemergence, scale 0 to 100 (0 no effect, 100 complete control), read-out: Plant response rating, Velvetleaf
[15] = pre-emergence, Preemergence, scale 0 to 100 (0 no effect, 100 complete control), read-out: Plant response rating, Waterhemp
[16] = pre-emergence, Preemergence, scale 0 to 100 (0 no effect, 100 complete control), read-out: Plant response rating, Wheat
[17] = pre-emergence, Preemergence, scale 0 to 100 (0 no effect, 100 complete control), read-out: Plant response rating, Nutsedge, Yellow

FC(F)(F)c1cc(-c2ccccc2Oc2ncc(Cl)cn2)no1 [Compound 200, 5-chloro-2-[2-[5-(trifluoromethyl)-3-isoxazolyl]phenoxy]pyrimidine]
80%: pest or weed control at 125 g/ha ([4]; pre-emergence, Preemergence, read-out: Plant response rating (scale 0 to 100), Ragweed) | pest or weed control at 16 g/ha ([6]; post-emergence, Postemergence, read-out: Plant response rating (scale 0 to 100), Waterhemp)
30%: pest or weed control at 16 g/ha ([4]; post-emergence, Postemergence, read-out: Plant response rating (scale 0 to 100), Ragweed) | pest or weed control at 16 g/ha ([5]; post-emergence, Postemergence, read-out: Plant response rating (scale 0 to 100), Velvetleaf)
70%: pest or weed control at 62 g/ha [1, 9] | plant injury at 16 g/ha ([2]; post-emergence, Postemergence, read-out: Plant response rating (scale 0 to 100), Oilseed Rape) | pest or weed control at 62 g/ha [4, 12] | pest or weed control at 62 g/ha ([5]; post-emergence, Postemergence, scale 0 to 100, 0 no effect, 100 complete control, read-out: Velvetleaf plant response rating)
20%: plant injury at 125 g/ha ([7]; post-emergence, Postemergence, scale 0 to 100, 0 no effect, 100 complete control, read-out: Plant response rating, Wheat) | plant injury at 62 g/ha [7, 16]
15%: pest or weed control at 125 g/ha ([8]; post-emergence, Postemergence, scale 0 to 100, 0 no effect, 100 complete control, read-out: Plant response rating, Nutsedge, Yellow) | pest or weed control at 125 g/ha ([8]; pre-emergence, Preemergence, read-out: Plant response rating (scale 0 to 100), Nutsedge, Yellow)
5%: pest or weed control at 16 g/ha [1, 9] | pest or weed control at 31 g/ha [4, 12] | plant injury at 16 g/ha ([7]; post-emergence, Postemergence, read-out: Plant response rating (scale 0 to 100), Wheat) | plant injury at 31 g/ha [7, 16] | pest or weed control at 16 g/ha ([8]; post-emergence, Postemergence, read-out: Plant response rating (scale 0 to 100), Nutsedge, Yellow) | pest or weed control at 31 g/ha ([8]; post-emergence, Postemergence, scale 0 to 100 (0 no effect, 100 complete control), read-out: Nutsedge, Yellow plant response rating) | pest or weed control at 62 g/ha ([8]; post-emergence, Postemergence, scale 0 to 100, 0 no effect, 100 complete control, read-out: Nutsedge, Yellow plant response rating)
75%: pest or weed control at 125 g/ha ([5]; post-emergence, Postemergence, scale 0 to 100, 0 no effect, 100 complete control, read-out: Plant response rating, Velvetleaf)
40%: pest or weed control at 125 g/ha ([4]; post-emergence, Postemergence, scale 0 to 100, 0 no effect, 100 complete control, read-out: Plant response rating, Ragweed) | plant injury at 62 g/ha (soybean (Glycine max); [13]) | plant injury at 125 g/ha ([7]; pre-emergence, Preemergence, read-out: Plant response rating (scale 0 to 100), Wheat)
100%: plant injury at 62 g/ha ([2]; post-emergence, Postemergence, scale 0 to 100, 0 no effect, 100 complete control, read-out: Oilseed Rape plant response rating) | plant injury at 125 g/ha ([2]; post-emergence, Postemergence, scale 0 to 100, 0 no effect, 100 complete control, read-out: Plant response rating, Oilseed Rape) | plant injury at 125 g/ha ([2]; pre-emergence, Preemergence, read-out: Plant response rating (scale 0 to 100), Oilseed Rape) | plant injury at 31 g/ha [2, 10] | plant injury at 62 g/ha [2, 10] | pest or weed control at 125 g/ha ([3]; pre-emergence, Preemergence, read-out: Plant response rating (scale 0 to 100), Pigweed) | pest or weed control at 16 g/ha [3, 11] | pest or weed control at 31 g/ha [3, 11] | pest or weed control at 62 g/ha [3, 11] | plant injury at 16 g/ha (soybean (Glycine max); [13]) | pest or weed control at 125 g/ha ([5]; pre-emergence, Preemergence, read-out: Plant response rating (scale 0 to 100), Velvetleaf) | pest or weed control at 16 g/ha [5, 14] | pest or weed control at 31 g/ha [5, 14] | pest or weed control at 62 g/ha [5, 14] | pest or weed control at 125 g/ha ([6]; post-emergence, Postemergence, scale 0 to 100, 0 no effect, 100 complete control, read-out: Plant response rating, Waterhemp) | pest or weed control at 125 g/ha ([6]; pre-emergence, Preemergence, read-out: Plant response rating (scale 0 to 100), Waterhemp) | pest or weed control at 31 g/ha [6, 15] | pest or weed control at 62 g/ha [6, 15]
25%: plant injury at 62 g/ha ([7]; post-emergence, Postemergence, scale 0 to 100, 0 no effect, 100 complete control, read-out: Wheat plant response rating)
98%: pest or weed control at 125 g/ha ([1]; post-emergence, Postemergence, scale 0 to 100, 0 no effect, 100 complete control, read-out: Plant response rating, Morningglory) | pest or weed control at 125 g/ha ([3]; post-emergence, Postemergence, scale 0 to 100, 0 no effect, 100 complete control, read-out: Plant response rating, Pigweed) | plant injury at 125 g/ha (soybean (Glycine max); post-emergence, Postemergence, scale 0 to 100, 0 no effect, 100 complete control, read-out: Plant response rating, Soybean) | pest or weed control at 62 g/ha ([6]; post-emergence, Postemergence, scale 0 to 100, 0 no effect, 100 complete control, read-out: Waterhemp plant response rating) | pest or weed control at 16 g/ha [6, 15]
0%: pest or weed control at 16 g/ha [4, 12] | plant injury at 16 g/ha [7, 16] | pest or weed control at 16 g/ha [8, 17] | pest or weed control at 31 g/ha [8, 17] | pest or weed control at 62 g/ha [8, 17]
50%: pest or weed control at 31 g/ha ([1]; post-emergence, Postemergence, scale 0 to 100 (0 no effect, 100 complete control), read-out: Morningglory plant response rating)
55%: pest or weed control at 16 g/ha ([1]; post-emergence, Postemergence, read-out: Plant response rating (scale 0 to 100), Morningglory) | pest or weed control at 31 g/ha ([4]; post-emergence, Postemergence, scale 0 to 100 (0 no effect, 100 complete control), read-out: Ragweed plant response rating)
90%: pest or weed control at 125 g/ha ([1]; pre-emergence, Preemergence, read-out: Plant response rating (scale 0 to 100), Morningglory) | pest or weed control at 16 g/ha ([3]; post-emergence, Postemergence, read-out: Plant response rating (scale 0 to 100), Pigweed) | plant injury at 62 g/ha (soybean (Glycine max); post-emergence, Postemergence, scale 0 to 100, 0 no effect, 100 complete control, read-out: Soybean plant response rating) | pest or weed control at 31 g/ha ([6]; post-emergence, Postemergence, scale 0 to 100 (0 no effect, 100 complete control), read-out: Waterhemp plant response rating)
45%: pest or weed control at 31 g/ha [1, 9]
10%: plant injury at 31 g/ha (soybean (Glycine max); [13]) | plant injury at 31 g/ha ([7]; post-emergence, Postemergence, scale 0 to 100 (0 no effect, 100 complete control), read-out: Wheat plant response rating)
85%: pest or weed control at 62 g/ha ([1]; post-emergence, Postemergence, scale 0 to 100, 0 no effect, 100 complete control, read-out: Morningglory plant response rating) | plant injury at 31 g/ha ([2]; post-emergence, Postemergence, scale 0 to 100 (0 no effect, 100 complete control), read-out: Oilseed Rape plant response rating) | plant injury at 16 g/ha [2, 10] | pest or weed control at 31 g/ha ([3]; post-emergence, Postemergence, scale 0 to 100 (0 no effect, 100 complete control), read-out: Pigweed plant response rating) | pest or weed control at 62 g/ha ([3]; post-emergence, Postemergence, scale 0 to 100, 0 no effect, 100 complete control, read-out: Pigweed plant response rating) | plant injury at 31 g/ha (soybean (Glycine max); post-emergence, Postemergence, scale 0 to 100 (0 no effect, 100 complete control), read-out: Soybean plant response rating) | plant injury at 125 g/ha (soybean (Glycine max); pre-emergence, Preemergence, read-out: Plant response rating (scale 0 to 100), Soybean)
60%: pest or weed control at 62 g/ha ([4]; post-emergence, Postemergence, scale 0 to 100, 0 no effect, 100 complete control, read-out: Ragweed plant response rating) | plant injury at 16 g/ha (soybean (Glycine max); post-emergence, Postemergence, read-out: Plant response rating (scale 0 to 100), Soybean) | pest or weed control at 31 g/ha ([5]; post-emergence, Postemergence, scale 0 to 100 (0 no effect, 100 complete control), read-out: Velvetleaf plant response rating)
